{
  "source": "patent US20170190744A1",
  "about": "(Vicuron Pharmaceuticals, Inc., priority 2015, published 2017)",
  "key": {"[1]": {"system": "MRSA Staph. aureus 3817", "test": "Staph. aureus murine septicaemia, ED50", "type": "in vivo", "settings": "Staphylococcus aureus, sc, 10 min"}, "[2]": {"system": "3797 S aureus clin. Isolate GISA", "test": "MIC (microbiological activity)", "type": "cell-based"}, "[3]": {"system": "G 16440 E coli iperperm", "test": "MIC (microbiological activity)", "type": "cell-based", "settings": "repeat determinations"}, "[4]": {"system": "P450", "test": "P450 induction after administration to rats", "type": "in vivo"}, "[5]": {"system": "skin and soft tissue infections (SSTI)", "test": "Phase II trial in deep skin and soft tissue infections: clinical response", "type": "in vivo, human", "settings": "for clinical success rate at FU: clinically-evaluable population; for clinical success rate, deep or complicated SSTI at baseline: exploratory subanalysis", "description": "This randomized, controlled study evaluated the safety and efficacy of two dose regimens of dalbavancin.\nThere were 62 patients randomized into the study; all received at least one dose of study medication. Four study populations were evaluated for safety and efficacy and were defined as follows: The intent-to-treat (ITT) population included all patients who received at least one dose of study drug (all randomized study subjects).\n(§1) The effectiveness of the three treatment regimens was determined by assessing the patients' clinical response and the documented or presumed microbiological responses. The primary efficacy endpoint was clinical response at the follow-up visit for the clinically evaluable population. Clinical response, for both EOT and FU visits, was categorized as success (cure or improvement) or failure (including indeterminate results). Patients classified as successes must not have received additional systemic antibacterial treatment for their infection. Failure was defined as persistence of one or more local or systemic signs and symptoms of SSTI such that treatment with new or additional systemic antibacterial agents was required for the SSTI."}, "[6]": {"system": "methicillin-resistant S. aureus (MRSA)", "test": "Phase II SSTI trial: response in patients with MRSA (MITT)", "type": "in vivo, human", "settings": "MITT population", "description": "as §1\nMicrobiological outcome, a secondary efficacy variable, was assessed in the subpopulation of patients who had microbiologically documented SSTI (i.e., at least one identified baseline pathogen). A microbiologic response was assessed for each Gram-positive pathogen identified at baseline (i.e., eradication, presumed eradication, persistence, presumed persistence). For patients for whom follow-up cultures were not performed, the microbiologic responses for baseline pathogens were presumed on the basis of the clinical response. Microbiologic response by patient at the EOT and FU visits was graded as success (i.e., all Gram-positive organisms eradicated or presumed eradicated) or failure (i.e., at least one Gram-positive organism persisted or presumed to have persisted, multiple pathogens with partial eradication). At both the EOT and FU visits, colonization and superinfection were assessed. At the FU visit, a patient's bacteriological response could also include recurrence."}, "[7]": {"system": "S. aureus", "test": "MIC in broth, serum, serum ultrafiltrate and albumin (protein binding)", "type": "cell-based", "settings": "Staphylococcus aureus", "from_the_text": "This degree of binding was considered in subsequent pharmacodynamic analyses. The degree of binding in human serum would be estimated to be 96%."}, "[8]": {"system": "S. aureus", "test": "Murine thigh-infection model", "type": "in vivo, mice", "settings": "for 1 Log Kill mg/kg/72 h / 2 Log Kill mg/kg/72 h: q 72 h regimen; for 1 log kill dose: SA29213, total dose over 6 days", "description": "Each point represents the mean of 4 thighs. Five dose levels, ranging 16-fold were used.\nFive different doses (two-fold increases) were used. Study against S. aureus utilized total dose (mg/kg/6 d) levels ranging from 30 to 480 mg/kg/6 d. […] Each point represents the mean of 4 thighs.\nEach point represents the mean of four thighs."}, "[9]": {"system": "S. aureus", "test": "MIC of study organisms (NCCLS microdilution)", "type": "cell-based"}},
  "note": "“And” between values parts separate entries of the source, which are not always exact repeats. Identical values can stand only once. Like-named read-outs stand apart in the source and are kept apart here.",
  "data": [
    {"molecule": "CN[C@H]1C(=O)N[C@@H]2Cc3ccc(cc3)Oc3cc4cc(c3O[C@@H]3O[C@H](C(=O)O)[C@@H](O)[C@H](O)[C@H]3NC(=O)CCCCCCCCC(C)C)Oc3ccc(cc3Cl)[C@@H](O)[C@@H]3NC(=O)[C@H](NC(=O)[C@@H]4NC(=O)[C@@H](NC2=O)c2cc(cc(O)c2Cl)Oc2cc1ccc2O)c1ccc(O)c(c1)-c1c(O[C@H]2O[C@H](CO)[C@@H](O)[C@H](O)[C@@H]2O)cc(O)cc1[C@@H](C(=O)NCCCN(C)C)NC3=O", "note": "[Dalbavancin]", "values": [
      {"measurement": "ED50", "setting": "[1]", "value": 0.7, "unit": "mg/kg"},
      {"measurement": "MIC", "setting": "[2]", "value": 2, "unit": "µg/mL"},
      {"measurement": "MIC", "setting": "[3]", "value": 16, "unit": "µg/mL"},
      {"measurement": "P450 induction", "setting": "[4]", "value": "did not induce any P450 activity"},
      {"measurement": "clinical success rate at FU", "setting": "[5]; single-dose dalbavancin (1100 mg IV day 1)", "value": 61.5, "unit": "%"},
      {"measurement": "clinical success rate at FU", "setting": "[5]; two-dose dalbavancin (1 g IV day 1, 500 mg IV day 8)", "value": "94.1% and 94%"},
      {"measurement": "clinical success rate, deep or complicated SSTI at baseline", "setting": "[5]; single-dose dalbavancin", "value": 58.3, "unit": "%"},
      {"measurement": "clinical success rate, deep or complicated SSTI at baseline", "setting": "[5]; two-dose dalbavancin", "value": 93.8, "unit": "%"},
      {"measurement": "clinical success rate at FU in patients with MRSA", "setting": "[6]; single-dose dalbavancin", "value": 50, "unit": "%"},
      {"measurement": "rate of eradication for MRSA", "setting": "[6]; single-dose dalbavancin", "value": 50, "unit": "%"},
      {"measurement": "clinical success rate at FU in patients with MRSA", "setting": "[6]; two-dose dalbavancin", "value": 80, "unit": "%"},
      {"measurement": "rate of eradication for MRSA", "setting": "[6]; two-dose dalbavancin", "value": 80, "unit": "%"},
      {"measurement": "MIC", "setting": "[7]; MRSA, read-out: MIC 95% Human Albumin, S. aureus strain MRSA", "value": 8, "unit": "µg/mL"},
      {"measurement": "MIC", "setting": "[7]; MRSA, read-out: MIC 95% Human Serum, S. aureus strain MRSA", "value": 8, "unit": "µg/mL"},
      {"measurement": "MIC", "setting": "[7]; MRSA, read-out: MIC 95% Mouse Serum Ultrafiltrate, S. aureus strain MRSA", "value": 0.5, "unit": "µg/mL"},
      {"measurement": "MIC", "setting": "[7]; MRSA, read-out: MIC 95% Mouse Serum, S. aureus strain MRSA", "value": 32, "unit": "µg/mL"},
      {"measurement": "MIC", "setting": "[7]; human serum and albumin", "value": 8, "unit": "µg/mL"},
      {"measurement": "MIC", "setting": "[7]; mouse serum ultrafiltrate", "value": 0.5, "unit": "µg/mL"},
      {"measurement": "MIC", "setting": "[7]; read-out: MIC 95% Human Albumin, S. aureus strain 25923", "value": 8, "unit": "µg/mL"},
      {"measurement": "MIC", "setting": "[7]; read-out: MIC 95% Human Serum, S. aureus strain 25923", "value": 8, "unit": "µg/mL"},
      {"measurement": "MIC", "setting": "[7]; read-out: MIC 95% Mouse Serum Ultrafiltrate, S. aureus strain 25923", "value": 0.5, "unit": "µg/mL"},
      {"measurement": "MIC", "setting": "[7]; read-out: MIC 95% Mouse Serum, S. aureus strain 25923", "value": 32, "unit": "µg/mL"},
      {"measurement": "MIC", "setting": "[7]; read-out: MIC (arithmetic), 95% mouse serum", "value": 32, "unit": "µg/mL"},
      {"measurement": "1 Log Kill mg/kg/72 h", "setting": "[8]; MRSA, 6 days of therapy", "value": 62, "unit": "mg/kg/72 h"},
      {"measurement": "2 Log Kill mg/kg/72 h", "setting": "[8]; MRSA, 6 days of therapy", "value": 85, "unit": "mg/kg/72 h"},
      {"measurement": "1 Log Kill mg/kg/72 h", "setting": "[8]; Mean ± SD of S. aureus strains", "value": "94 ± 46", "unit": "mg/kg/72 h"},
      {"measurement": "2 Log Kill mg/kg/72 h", "setting": "[8]; Mean ± SD of S. aureus strains", "value": "120 ± 54", "unit": "mg/kg/72 h"},
      {"measurement": "1 log kill dose", "setting": "[8]; q 36 h", "value": 36, "unit": "mg/kg"},
      {"measurement": "1 log kill dose", "setting": "[8]; q 72 h", "value": 31, "unit": "mg/kg"},
      {"measurement": "1 Log Kill mg/kg/72 h", "setting": "[8]; SA33591, 6 days of therapy", "value": 93, "unit": "mg/kg/72 h"},
      {"measurement": "1 Log Kill mg/kg/72 h", "setting": "[8]; SA307109, 6 days of therapy", "value": 34, "unit": "mg/kg/72 h"},
      {"measurement": "2 Log Kill mg/kg/72 h", "setting": "[8]; SA307109, 6 days of therapy", "value": 37, "unit": "mg/kg/72 h"},
      {"measurement": "1 Log Kill mg/kg/72 h", "setting": "[8]; SA Smith, 6 days of therapy", "value": 95, "unit": "mg/kg/72 h"},
      {"measurement": "drop in cfu over the 6 day study", "setting": "[8]; all strains", "value": "> 4", "unit": "log10"},
      {"measurement": "free drug AUC/MIC over the 6 days of therapy required for efficacy", "setting": "[8]; net static effect, 1 or 2 log kill", "value": "~1000"},
      {"measurement": "MBC relative to MIC", "setting": "[9]; S. aureus, MBC higher than MIC", "value": "2 to 4", "unit": "fold"},
      {"measurement": "MBC", "setting": "[9]; SA25923", "value": 0.50, "unit": "µg/mL"}
    ]}
  ]
}
